Converted amounts (≈) assume the structure as drawn. Counter-ions that a name gives are not always drawn. Like-named read-outs stand apart in the source and are kept apart here.
How the values were obtained:
Assay type in all cases: cell-based
[1] = tested on: Brucella abortus ATCC 23448; assay: microbe, parasite or virus in culture; settings: ATCC23448
K. pneumoniae ATCC 33495 = assay: MIC, CLSI broth microdilution (Table 2); settings: Klebsiella pneumoniae
E. faecalis ATCC 29212 = assay: MIC, CLSI broth microdilution (Table 1); settings: Enterococcus faecalis
H. influenzae ATCC 49247 = assay: MIC, CLSI broth microdilution (Table 2); settings: Haemophilus influenzae
[2] = tested on: Bacillus anthracis Ames strain; assay: microbe, parasite or virus in culture
[3] = tested on: S. aureus ATCC 43300 (MRSA, FQ-S); assay: MIC, CLSI broth microdilution (Table 1); settings: Staphylococcus aureus, read-out: MIC S. aureus ATCC 43300 (MRSA, FQ-S)
E. coli ATCC 25922 = assay: MIC, CLSI broth microdilution (Table 2); settings: Escherichia coli
Yersinia pestis C092 = assay: microbe, parasite or virus in culture
E. faecium ATCC 19434 = assay: MIC, CLSI broth microdilution (Table 1); settings: Enterococcus faecium
[4] = tested on: S. maltophilia ATCC 17677; assay: MIC, CLSI broth microdilution (Table 2); settings: Stenotrophomonas maltophilia
[5] = tested on: Burkholderia pseudomallei ATCC 23343; assay: microbe, parasite or virus in culture; settings: ATCC23343
[6] = tested on: S. aureus BAA-1720 (MRSA, FQ-R); assay: MIC, CLSI broth microdilution (Table 1); settings: Staphylococcus aureus, read-out: MIC S. aureus BAA-1720 (MRSA, FQ-R)
A. baumannii ATCC 19606 = assay: MIC, CLSI broth microdilution (Table 2); settings: Acinetobacter baumannii
S. pneumonia ATCC 49619 = assay: MIC, CLSI broth microdilution (Table 1); settings: Streptococcus pneumoniae
S. aureus ATCC 25923 = assay: MIC, CLSI broth microdilution (Table 1); settings: Staphylococcus aureus
[7] = tested on: Francisella tularensis Schu S4; assay: microbe, parasite or virus in culture; settings: SCHUS4
[8] = tested on: Burkholderia mallei ATCC 23344; assay: microbe, parasite or virus in culture; settings: ATCC23344
P. aeruginosa ATCC 27853 = assay: MIC, CLSI broth microdilution (Table 2); settings: Pseudomonas aeruginosa
[9] = tested on: Burkholderia cepacia (5 strains); assay: MIC range, broader panel incl. clinical isolates (Table 4)
[10] = tested on: Staphylococcus aureus (16 strains); assay: MIC range, broader panel incl. clinical isolates (Table 3)
[11] = ATCC33495, Gram negative, MHB, 37° C., 16-20 hours, read-out: MIC K. pneumoniae ATCC 33495
[12] = ATCC29212, Gram positive, MHB, 37° C., 16-20 hours, read-out: MIC E. faecalis ATCC 29212
[13] = ATCC49247, Gram negative, MHB, 37° C., 16-20 hours, read-out: MIC H. influenzae ATCC 49247
[14] = Gram positive, MHB, 37° C., 16-20 hours
[15] = ATCC25922, read-out: MIC E. coli ATCC 25922
[16] = ATCC19434, Gram positive, MHB, 37° C., 16-20 hours, read-out: MIC E. faecium ATCC 19434
[17] = ATCC17677, Gram negative, MHB, 37° C., 16-20 hours, read-out: MIC S. maltophilia ATCC 17677
[18] = ATCC19606, Gram negative, MHB, 37° C., 16-20 hours, read-out: MIC A. baumannii B. ATCC 19606
[19] = ATCC49619, Gram positive, MHB, 37° C., 16-20 hours, read-out: MIC S. pneumonia ATCC 49619
[20] = ATCC25923, Gram positive, MHB, 37° C., 16-20 hours, read-out: MIC S. aureus ATCC 25923
[21] = ATCC27853, Gram negative, MHB, 37° C., 16-20 hours, read-out: MIC P. aeruginosa ATCC 27853
[22] = ATCC33495, read-out: MIC K. pneumoniae ATCC 33495
[23] = ATCC29212, read-out: MIC E. faecalis ATCC 29212
[24] = ATCC49247, read-out: MIC H. influenzae ATCC 49247
[25] = ATCC19434, read-out: MIC E. faecium ATCC 19434
[26] = ATCC17677, read-out: MIC S. maltophilia ATCC 17677
[27] = ATCC19606, read-out: MIC A. baumannii B. ATCC 19606
[28] = ATCC49619, read-out: MIC S. pneumonia ATCC 49619
[29] = ATCC25923, read-out: MIC S. aureus ATCC 25923
[30] = ATCC27853, read-out: MIC P. aeruginosa ATCC 27853
[31] = ATCC25922, Gram negative, MHB, 37° C., 16-20 hours, read-out: MIC E. coli ATCC 25922

Structure (SMILES) | MIC [1] [mg/L] | MIC (H. influenzae ATCC 49247; [13]) [mg/L] | MIC [2] [mg/L] | MIC [3, 14] [mg/L] | MIC (E. coli ATCC 25922; [15]) [mg/L] | MIC (Yersinia pestis C092) [mg/L] | MIC (E. faecium ATCC 19434; [16]) [mg/L] | MIC [4, 17] [mg/L] | MIC [5] [mg/L] | MIC [6, 14] [mg/L] | MIC (A. baumannii ATCC 19606; [18]) [mg/L] | MIC (S. pneumonia ATCC 49619; [19]) [mg/L] | MIC (S. aureus ATCC 25923; [20]) [mg/L] | MIC [7] [mg/L] | MIC [8] [mg/L] | MIC (P. aeruginosa ATCC 27853; [21]) [mg/L] | MIC (K. pneumoniae ATCC 33495; [22]) [mg/L] | MIC (E. faecalis ATCC 29212; [23]) [mg/L] | MIC (H. influenzae ATCC 49247; [24]) [mg/L] | MIC [3] [mg/L] | further results
Cc1c(-c2cccc(N)c2)ccn2c(=O)c(C(=O)O)cc(C3CC3)c12 [Example 3 K salt, 8-(3-amino-phenyl)-1-cyclopropyl-9-methyl-4-oxo-4H-quinolizine-3-carboxylic acid] | 0.125 | 0.016 | 0.008 | 0.016 | 0.064 to 0.125 | 0.031 to 0.063 | 1 | 0.25 | 0.25 | 0.5 | 0.25 | 0.25 | 0.016 | 0.031 | 0.5 to 1 | 2 |  |  |  |  | MIC (K. pneumoniae ATCC 33495; [11]): 0.25 mg/L; MIC (E. faecalis ATCC 29212; [12]): 0.064 mg/L
Cc1c(-c2ccc3[nH]ncc3c2)ccn2c(=O)c(C(=O)O)cc(C3CC3)c12 [Example 23 K salt, 1-cyclopropyl-8-(1H-indazol-5-yl)-9-methyl-4-oxo-4H-quinolizine-3-carboxylic acid] | 0.016 |  | 0.004 |  | 0.032 | 0.016 to 0.031 |  |  | 0.063 |  |  |  |  | 0.016 | 0.063 |  | 0.125 | 0.008 | ≤ 0.004 | ≤ 0.004 | MIC (E. faecium ATCC 19434; [25]): 0.25 mg/L; MIC [4, 26]: 0.064 mg/L; MIC [6]: 0.125 mg/L; MIC (A. baumannii ATCC 19606; [27]): 0.125 mg/L; MIC (S. pneumonia ATCC 49619; [28]): 0.064 mg/L; MIC (S. aureus ATCC 25923; [29]): ≤ 0.004 mg/L; MIC (P. aeruginosa ATCC 27853; [30]): 2 mg/L
Cc1c(-c2ccnc(F)c2)ccn2c(=O)c(C(=O)O)cc(C3CC3)c12 [Example 20 K salt, 1-cyclopropyl-8-(2-fluoro-pyridin-4-yl)-9-methyl-4-oxo-4H-quinolizine-3-carboxylic acid] | 0.063 | ≤ 0.004 | 0.031 | 0.016 |  | 0.063 | 1 | 0.25 | 0.25 | 1 | 0.25 | 0.25 | 0.032 | 0.008 to 0.016 | 0.125 | 2 to 4 | 0.125 to 0.25 | 0.125 |  |  | MIC (E. coli ATCC 25922; [31]): 0.064 mg/L
Cc1c(-c2ccc(N)c(F)c2)ccn2c(=O)c(C(=O)O)cc(C3CC3)c12 [Example 2 K salt, 8-(4-amino-3-fluoro-phenyl)-1-cyclopropyl-9-methyl-4-oxo-4H-quinolizine-3-carboxylic acid] | 0.016 to 0.031 |  | 0.004 |  | 0.032 | 0.031 |  |  | 0.063 |  |  |  |  | 0.016 | 0.063 |  | 0.125 | 0.016 | ≤ 0.004 | 0.004 | MIC (E. faecium ATCC 19434; [25]): 0.25 mg/L; MIC [4, 26]: 0.125 mg/L; MIC [6]: 0.125 mg/L; MIC (A. baumannii ATCC 19606; [27]): 0.125 mg/L; MIC (S. pneumonia ATCC 49619; [28]): 0.032 mg/L; MIC (S. aureus ATCC 25923; [29]): ≤ 0.004 mg/L; MIC (P. aeruginosa ATCC 27853; [30]): 1 mg/L
Cc1c(-c2ccc(O)cc2)ccn2c(=O)c(C(=O)O)cc(C3CC3)c12 [Example 46 K salt, 1-cyclopropyl-8-(4-hydroxy-phenyl)-9-methyl-4-oxo-4H-quinolizine-3-carboxylic acid] | 0.031 |  | 0.004 |  | 0.032 | 0.008 to 0.016 |  |  | 0.063 |  |  |  |  | 0.016 | 0.063 |  | 0.064 | 0.016 | ≤ 0.004 | ≤ 0.004 | MIC (E. faecium ATCC 19434; [25]): 0.25 mg/L; MIC [4, 26]: 0.125 mg/L; MIC [6]: 0.125 mg/L; MIC (A. baumannii ATCC 19606; [27]): 0.064 mg/L; MIC (S. pneumonia ATCC 49619; [28]): 0.032 mg/L; MIC (S. aureus ATCC 25923; [29]): ≤ 0.004 mg/L; MIC (P. aeruginosa ATCC 27853; [30]): 1 to 2 mg/L
Cc1c(-c2cc(N)cc(F)c2)ccn2c(=O)c(C(=O)O)cc(C3CC3)c12 [Example 9 K salt, 8-(3-amino-5-fluoro-phenyl)-1-cyclopropyl-9-methyl-4-oxo-4H-quinolizine-3-carboxylic acid] | 0.063 | 0.008 | 0.008 | 0.008 |  | 0.031 | 0.5 | 0.25 | 0.25 | 0.25 | 0.125 | 0.064 | 0.008 | 0.016 | 0.125 to 0.25 | 2 | 0.125 to 0.25 |  |  |  | MIC (E. faecalis ATCC 29212; [12]): 0.032 mg/L; MIC (E. coli ATCC 25922; [31]): 0.064 mg/L
Cc1c(C2=CCNCC2)ccn2c(=O)c(C(=O)O)cc(C3CC3)c12 [Example 42, 1-cyclopropyl-9-methyl-4-oxo-8-(1,2,3,6-tetrahydropyridin-4-yl)-4H-quinolizine-3-carboxylic acid] |  | 0.064 (≈ 0.197 µM) | 0.25 (≈ 0.771 µM) |  |  | 0.5 to 1 (≈ 1.54 to 3.08 µM) | > 8 | 1 (≈ 3.08 µM) | 4 (≈ 12.3 µM) | > 8 | 2 (≈ 6.17 µM) | 2 (≈ 6.17 µM) |  | 0.25 to 0.5 (≈ 0.771 to 1.54 µM) | 2 (≈ 6.17 µM) |  |  |  |  |  | MIC (K. pneumoniae ATCC 33495; [11]): 0.125 mg/L (≈ 0.385 µM); MIC Range High, Burkholderia cepacia (5 strains) ([9]; High of 5 strains): 2 mg/L (≈ 6.17 µM); MIC Range Low, Burkholderia cepacia (5 strains) ([9]; Low of 5 strains): 2 mg/L (≈ 6.17 µM); MIC Range Median, Burkholderia cepacia (5 strains) ([9]; Median of 5 strains): 2 mg/L (≈ 6.17 µM); MIC Range High, Staphylococcus aureus (16 strains) ([10]; High of 16 strains): 32 mg/L (≈ 98.6 µM); MIC Range Low, Staphylococcus aureus (16 strains) ([10]; Low of 16 strains): 0.5 mg/L (≈ 1.54 µM); MIC Range Median, Staphylococcus aureus (16 strains) ([10]; Median of 16 strains): 16.25 mg/L (≈ 50.1 µM); MIC (E. coli ATCC 25922; [31]): 0.064 mg/L (≈ 0.197 µM)
Cc1c(-c2ccc(CN)cc2)ccn2c(=O)c(C(=O)O)cc(C3CC3)c12 [Example 31 K salt, 8-(4-(aminomethyl)-phenyl)-1-cyclopropyl-9-methyl-4-oxo-4H-quinolizine-3-carboxylic acid] | 0.25 |  | 0.016 to 0.031 |  | 0.032 | 0.25 |  |  | 1 |  |  |  |  | 0.125 to 0.5 | 0.5 to 1 |  | 0.125 to 0.25 | 0.25 | 0.016 | 0.032 | MIC (E. faecium ATCC 19434; [25]): 2 mg/L; MIC [4, 26]: 0.125 mg/L; MIC [6]: 1 mg/L; MIC (A. baumannii ATCC 19606; [27]): 0.25 mg/L; MIC (S. pneumonia ATCC 49619; [28]): 0.125 mg/L; MIC (S. aureus ATCC 25923; [29]): 0.064 mg/L; MIC (P. aeruginosa ATCC 27853; [30]): 1 mg/L
Cc1c(-c2ccc(Cl)cc2)ccn2c(=O)c(C(=O)O)cc(C3CC3)c12 [Example 45 K salt, 1-cyclopropyl-8-(4-chloro-phenyl)-9-methyl-4-oxo-4H-quinolizine-3-carboxylic acid] | 0.031 | 0.016 | 0.016 | 0.016 |  | 0.031 | 0.5 to 1 | 0.25 | 0.063 to 0.125 | 0.5 | 0.25 | 0.25 | 0.016 to 0.032 | 0.008 to 0.016 | 0.063 to 0.125 | 2 |  |  |  |  | MIC (K. pneumoniae ATCC 33495; [11]): 0.5 to 1 mg/L; MIC (E. faecalis ATCC 29212; [12]): 0.064 mg/L; MIC (E. coli ATCC 25922; [31]): 0.25 mg/L

Reference: patent US20150141435A1, “2-PYRIDONE ANTIMICROBIAL COMPOSITIONS” (Emergent BioSolutions, priority 2010, published 2015)
